Experimental data as given in ChEMBL document CHEMBL1154879, “Discovery of (thienopyrimidin-2-yl)aminopyrimidines as potent, selective, and orally available pan-PI3-kinase and dual pan-PI3-kinase/mTOR inhibitors for the treatment of cancer” (J Med Chem, 2010).

How the values were obtained:
[1] = Antiproliferative activity against human MCF7.1 cells expressing PI3Kalpha mutant after 3 to 4 days; format: functional, cell-based
[2] = molecular target: Phosphatidylinositol 4,5-bisphosphate 3-kinase catalytic subunit beta isoform (Homo sapiens, UniProt P42338); assay: Inhibition of recombinant PI3Kbeta assessed as PIP3 product formation by fluorescence polarization assay
Sequence of Phosphatidylinositol 4,5-bisphosphate 3-kinase catalytic subunit beta isoform (P42338 whole entry, canonical isoform): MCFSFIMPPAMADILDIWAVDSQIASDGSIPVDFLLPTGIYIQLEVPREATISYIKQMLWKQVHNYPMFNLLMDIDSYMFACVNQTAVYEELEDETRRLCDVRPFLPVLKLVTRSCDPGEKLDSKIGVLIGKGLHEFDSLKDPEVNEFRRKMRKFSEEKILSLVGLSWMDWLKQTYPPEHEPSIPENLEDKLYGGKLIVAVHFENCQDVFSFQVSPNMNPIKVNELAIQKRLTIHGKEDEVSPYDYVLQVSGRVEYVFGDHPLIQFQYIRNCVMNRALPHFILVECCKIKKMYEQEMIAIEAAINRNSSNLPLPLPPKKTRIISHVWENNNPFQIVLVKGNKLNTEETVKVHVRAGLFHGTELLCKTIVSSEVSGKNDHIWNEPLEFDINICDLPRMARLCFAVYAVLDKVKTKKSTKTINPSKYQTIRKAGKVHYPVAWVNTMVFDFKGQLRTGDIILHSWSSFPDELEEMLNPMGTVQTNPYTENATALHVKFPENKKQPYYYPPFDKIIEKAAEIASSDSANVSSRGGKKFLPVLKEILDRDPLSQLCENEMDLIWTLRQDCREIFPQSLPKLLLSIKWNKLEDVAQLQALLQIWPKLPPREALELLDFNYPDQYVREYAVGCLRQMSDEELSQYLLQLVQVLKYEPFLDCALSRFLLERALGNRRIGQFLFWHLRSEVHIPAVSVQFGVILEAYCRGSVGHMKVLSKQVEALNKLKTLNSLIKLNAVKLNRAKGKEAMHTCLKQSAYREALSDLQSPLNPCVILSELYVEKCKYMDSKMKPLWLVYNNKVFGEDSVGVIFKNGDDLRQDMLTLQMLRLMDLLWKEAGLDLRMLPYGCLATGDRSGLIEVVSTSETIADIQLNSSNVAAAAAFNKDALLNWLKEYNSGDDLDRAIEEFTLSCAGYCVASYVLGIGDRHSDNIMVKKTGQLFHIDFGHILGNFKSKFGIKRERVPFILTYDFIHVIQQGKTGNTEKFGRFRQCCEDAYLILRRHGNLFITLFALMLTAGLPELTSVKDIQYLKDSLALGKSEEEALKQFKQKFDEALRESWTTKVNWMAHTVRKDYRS

PC-3 = assay: Antiproliferative activity against human PC3 cells deficient in PTEN in after 3 to 4 days; format: functional, cell-based
[3] = molecular target: T1, Phosphatidylinositol 4,5-bisphosphate 3-kinase catalytic subunit delta isoform (Homo sapiens, UniProt O00329)
T1 sequence (O00329 whole entry): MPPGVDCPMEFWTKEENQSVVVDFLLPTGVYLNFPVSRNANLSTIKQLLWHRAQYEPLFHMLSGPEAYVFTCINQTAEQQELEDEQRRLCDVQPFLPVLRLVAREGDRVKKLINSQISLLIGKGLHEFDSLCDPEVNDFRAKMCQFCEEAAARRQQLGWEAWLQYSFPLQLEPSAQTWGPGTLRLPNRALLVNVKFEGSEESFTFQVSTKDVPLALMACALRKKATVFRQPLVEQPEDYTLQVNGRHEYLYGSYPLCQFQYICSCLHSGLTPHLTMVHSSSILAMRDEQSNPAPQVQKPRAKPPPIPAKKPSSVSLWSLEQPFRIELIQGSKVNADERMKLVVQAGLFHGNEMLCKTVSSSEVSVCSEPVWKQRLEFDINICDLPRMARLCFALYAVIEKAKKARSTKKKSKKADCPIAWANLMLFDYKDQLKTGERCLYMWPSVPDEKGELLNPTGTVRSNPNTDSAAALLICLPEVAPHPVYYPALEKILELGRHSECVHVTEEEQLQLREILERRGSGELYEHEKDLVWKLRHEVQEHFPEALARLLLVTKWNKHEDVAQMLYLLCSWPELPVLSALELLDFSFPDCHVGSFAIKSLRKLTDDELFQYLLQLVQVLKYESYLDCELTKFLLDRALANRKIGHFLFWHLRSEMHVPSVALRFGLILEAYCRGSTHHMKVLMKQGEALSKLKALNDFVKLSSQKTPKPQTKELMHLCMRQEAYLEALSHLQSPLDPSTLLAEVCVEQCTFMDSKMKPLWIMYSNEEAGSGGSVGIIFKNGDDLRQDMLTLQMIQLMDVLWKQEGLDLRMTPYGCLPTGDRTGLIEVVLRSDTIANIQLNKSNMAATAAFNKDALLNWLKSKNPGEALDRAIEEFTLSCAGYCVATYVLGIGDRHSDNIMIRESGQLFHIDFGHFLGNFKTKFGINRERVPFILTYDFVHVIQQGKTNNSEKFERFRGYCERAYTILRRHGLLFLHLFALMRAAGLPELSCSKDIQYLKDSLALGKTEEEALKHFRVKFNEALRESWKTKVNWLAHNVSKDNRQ

[4] = molecular target: Phosphatidylinositol 4,5-bisphosphate 3-kinase catalytic subunit alpha isoform (Homo sapiens, UniProt P42336)
Sequence of Phosphatidylinositol 4,5-bisphosphate 3-kinase catalytic subunit alpha isoform (P42336 whole entry, canonical isoform): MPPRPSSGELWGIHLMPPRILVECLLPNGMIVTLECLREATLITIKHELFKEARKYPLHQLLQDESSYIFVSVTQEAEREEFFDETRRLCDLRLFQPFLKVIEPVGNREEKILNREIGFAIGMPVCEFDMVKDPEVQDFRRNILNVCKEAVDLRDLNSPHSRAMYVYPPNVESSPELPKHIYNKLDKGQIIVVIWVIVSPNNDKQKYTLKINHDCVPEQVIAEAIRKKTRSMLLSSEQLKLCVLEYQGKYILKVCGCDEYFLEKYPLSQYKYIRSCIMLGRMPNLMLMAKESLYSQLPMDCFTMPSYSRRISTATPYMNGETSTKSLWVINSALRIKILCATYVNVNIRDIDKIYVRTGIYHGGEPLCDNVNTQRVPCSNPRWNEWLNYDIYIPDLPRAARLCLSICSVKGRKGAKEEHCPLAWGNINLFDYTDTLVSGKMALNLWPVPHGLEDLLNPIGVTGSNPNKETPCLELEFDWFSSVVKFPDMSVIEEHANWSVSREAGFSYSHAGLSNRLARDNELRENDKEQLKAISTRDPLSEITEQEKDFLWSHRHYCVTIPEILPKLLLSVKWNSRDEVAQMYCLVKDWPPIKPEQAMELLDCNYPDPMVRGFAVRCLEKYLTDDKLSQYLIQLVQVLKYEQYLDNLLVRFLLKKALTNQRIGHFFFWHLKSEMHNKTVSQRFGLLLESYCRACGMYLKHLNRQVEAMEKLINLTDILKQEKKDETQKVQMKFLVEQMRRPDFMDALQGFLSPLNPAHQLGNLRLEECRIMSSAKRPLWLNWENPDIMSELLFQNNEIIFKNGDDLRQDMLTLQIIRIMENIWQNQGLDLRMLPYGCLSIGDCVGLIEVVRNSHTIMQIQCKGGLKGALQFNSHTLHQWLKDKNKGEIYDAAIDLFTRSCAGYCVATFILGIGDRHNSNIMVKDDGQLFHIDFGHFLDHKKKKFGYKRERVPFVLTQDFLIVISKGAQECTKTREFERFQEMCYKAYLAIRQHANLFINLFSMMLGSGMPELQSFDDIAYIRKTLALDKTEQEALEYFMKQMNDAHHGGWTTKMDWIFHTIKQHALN

[5] = molecular target: Serine/threonine-protein kinase mTOR (Homo sapiens, UniProt P42345)
[6] = Clearance in Beagle dog at 1 mg/kg, iv; format: ADME, organism-based, Canis lupus familiaris; parameters: dose 1 mg/kg, route intravenous; conditions: in vivo
[7] = molecular target: Phosphatidylinositol 4,5-bisphosphate 3-kinase catalytic subunit gamma isoform (Homo sapiens, UniProt P48736)
Sequence of Phosphatidylinositol 4,5-bisphosphate 3-kinase catalytic subunit gamma isoform (P48736 whole entry, canonical isoform): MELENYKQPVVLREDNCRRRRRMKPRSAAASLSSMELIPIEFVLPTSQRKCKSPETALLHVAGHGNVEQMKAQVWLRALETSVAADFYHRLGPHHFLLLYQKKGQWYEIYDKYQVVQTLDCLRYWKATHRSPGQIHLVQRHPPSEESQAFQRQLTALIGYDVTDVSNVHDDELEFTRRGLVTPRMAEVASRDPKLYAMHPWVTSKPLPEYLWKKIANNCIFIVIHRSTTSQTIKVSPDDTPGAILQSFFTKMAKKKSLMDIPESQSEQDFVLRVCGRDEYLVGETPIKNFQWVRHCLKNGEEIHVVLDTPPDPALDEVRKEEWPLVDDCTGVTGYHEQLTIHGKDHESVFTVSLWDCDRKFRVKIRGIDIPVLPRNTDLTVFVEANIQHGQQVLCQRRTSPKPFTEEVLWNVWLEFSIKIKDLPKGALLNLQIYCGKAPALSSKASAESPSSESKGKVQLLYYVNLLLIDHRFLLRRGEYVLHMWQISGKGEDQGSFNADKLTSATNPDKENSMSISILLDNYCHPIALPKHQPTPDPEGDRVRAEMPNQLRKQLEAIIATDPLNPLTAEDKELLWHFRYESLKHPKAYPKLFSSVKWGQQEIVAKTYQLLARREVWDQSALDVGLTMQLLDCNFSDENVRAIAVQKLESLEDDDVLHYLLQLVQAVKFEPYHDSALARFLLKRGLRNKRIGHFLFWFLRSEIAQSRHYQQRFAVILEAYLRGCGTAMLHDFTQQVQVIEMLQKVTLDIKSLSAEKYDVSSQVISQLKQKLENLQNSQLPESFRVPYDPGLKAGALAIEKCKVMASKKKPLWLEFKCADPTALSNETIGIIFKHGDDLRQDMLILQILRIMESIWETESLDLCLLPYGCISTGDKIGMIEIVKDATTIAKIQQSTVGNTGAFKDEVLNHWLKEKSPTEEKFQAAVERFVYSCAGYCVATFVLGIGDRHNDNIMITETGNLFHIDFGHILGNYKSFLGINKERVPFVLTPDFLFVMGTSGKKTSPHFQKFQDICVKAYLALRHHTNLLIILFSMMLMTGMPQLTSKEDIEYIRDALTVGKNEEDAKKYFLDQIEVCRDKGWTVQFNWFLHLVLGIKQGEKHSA

[8] = Clearance in Sprague-Dawley rat liver microsomes; format: ADME, Microsome
[9] = Clearance in Sprague-Dawley rat at 1 mg/kg, iv; format: ADME, organism-based; parameters: dose 1 mg/kg, route intravenous; conditions: in vivo
[10] = Oral bioavailability in Sprague-Dawley rat at 2 mg/kg; format: ADME, organism-based; conditions: in vivo
[11] = Volume of distribution at steady state in Sprague-Dawley rat at 1 mg/kg, iv; format: ADME, organism-based; parameters: dose 1 mg/kg, route intravenous; conditions: in vivo, read-out: Vdss
[12] = Oral bioavailability in Sprague-Dawley rat at 5 mg/kg, po; format: ADME, organism-based; conditions: in vivo

SMILES	IC50 [1] [µM]	IC50 [2] [µM]	IC50 (PC-3) [µM]	IC50 [3] [µM]	IC50 [4] [µM]	IC50 [5] [µM]	clearance [6] [mL/min/kg]	IC50 [7] [µM]	CLint scaled [8] [mL/min/kg]	clearance [9] [mL/min/kg]	bioavailability [10] [%]	Vd [11] [L/kg]	bioavailability [12] [%]
Cc1nc(N)ncc1-c1nc(N2CCOCC2)c2sc(CN3CCN(S(C)(=O)=O)CC3)cc2n1	0.29	0.0062	0.23	0.0007	0.0011	0.88							
CS(=O)(=O)N1CCN(Cc2cc3nc(-c4ccc(N)nc4)nc(N4CCOCC4)c3s2)CC1	0.2	0.06	0.27	0.0066	0.0055		16						
CS(=O)(=O)N1CCN(Cc2cc3nc(-c4cccc(CO)c4)nc(N4CCOCC4)c3s2)CC1	0.32		0.075	0.0014	0.0018								
CS(=O)(=O)N1CCN(Cc2cc3nc(-c4cccc(O)c4)nc(N4CCOCC4)c3s2)CC1	0.036	0.011	0.021	0.0009	0.0016			0.02					
CS(=O)(=O)N1CCN(Cc2cc3nc(-c4ccncc4)nc(N4CCOCC4)c3s2)CC1		5.4		0.31	2.9			5.1					
CS(=O)(=O)N1CCN(Cc2cc3nc(-c4ccc(N)cc4)nc(N4CCOCC4)c3s2)CC1	2.7	1.4	1.2	0.1	0.24			1.3					
CC(=O)NCc1cc2nc(-c3cccc4[nH]ncc34)nc(N3CCOCC3)c2s1			1.5		0.016				40	86	34		
CS(=O)(=O)N1CCN(Cc2cc3nc(-c4ccccc4)nc(N4CCOCC4)c3s2)CC1	3.7		3.7		0.43								
CS(=O)(=O)N1CCN(Cc2cc3nc(-c4cccc5[nH]ncc45)nc(N4CCOCC4)c3s2)CC1 [PICTILISIB]	0.34		0.39										
CC(C)(O)c1cc2nc(-c3cccc4[nH]ncc34)nc(N3CCOCC3)c2s1	1.4		1.4		0.022	0.13			40	16	29		
CC(O)c1cc2nc(-c3cccc4[nH]ncc34)nc(N3CCOCC3)c2s1 (configuration not stated)			1.1		0.028				95	101	17		
OCc1cc2nc(-c3cccc4[nH]ncc34)nc(N3CCOCC3)c2s1			1.2		0.029				170				
CS(=O)(=O)N1CCN(Cc2cc3nc(-c4cnc(N)nc4)nc(N4CCOCC4)c3s2)CC1		0.038	0.3	0.0024		0.029	22	0.0084		24		5.6	75
CS(=O)(=O)N1CCN(Cc2cc3nc(-c4cccnc4)nc(N4CCOCC4)c3s2)CC1	1.4	0.014	1.8	0.012	0.021			0.019					
